Experimental data as given in patent US5589568A (priority 1994, dated 1996).
Where no end group is shown, it is not given here.

Legend:
Gi [1] = experiment: steady state GTPase activity of Gi in phospholipid vesicles; assay type: biochemical, rabbit;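 note: Steady-state GTP hydrolysis by Gi measured in a detergent-free buffer containing 1.1 mM MgSO4 plus the specified guanine nucleotide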
Description: The concentration of free Mg^2+ in assay medium that contains 5 mM EDTA and no added Mg^2+ is estimated to be 0.1-0.2 nM according to Brandt et al., 1988 and 1983.

[2] = critical micelle concentration; assay type: physicochemical
From the text: MP was synthesized and purified as described by Saito and his colleagues (Chem. Pharm. Bull., 32:2187-2193, 1984, incorporated herein by reference). The MP analogs listed in Table I were synthesized by standard solid phase methods and purified by C-4 HPLC using an acetonitrile gradient in 0.1% trifluoroacetic acid. […] The identity of the peptides was monitored by 400-MHz or 250-Mhz ^1 H NMR spectroscopy for MP and MP-X and by mass spectroscopy for the other analogs. […] BAC was purchased from Sigma, and other alkylammonium compounds were from Aldrich. The critical micelle concentration of BAC was measured in the buffer used for GTPase assays (see below) using 1,6-diphenyl-1,3,5-hexatriene according to the method of Schrock and Gennis, (J. Biol. Chem, 252:5990-5995, 1977, incorporated herein by reference). The critical micelle concentration was approximately 20 μM.

Gi [3] = experiment: release of [α-32P]GDP from Gi (GDP exchange); assay type: biochemical, rabbit
Description: FIG. 1. Stimulation of GDP/GTP exchange by analogs of MP. The release of [α-^32 P]GDP from Gi was measured at 30° C. in the presence of the concentrations of several different MP analogs whose structures are listed in Table I: O, Mas7; Δ, Mas8; .tangle-solidup.Mas9; .quadrature., Mas19; .oval-solid., MP; .box-solid., MP-X; .gradient., MAS14; .tangle-soliddn., Mas6. First order dissociation rate constants (kdiss) were determined from duplicate four-point time courses as described under "Experimental Procedures."
Purification of αo and βγ was completed by chromatography on DEAE-Sephacel that was eluted with a gradient of 0-250 mM NaCl in the presence of 0.6% Lubrol and AMF. AMF was removed by chromatography on hydroxyapatite and Sephadex G-25 as described by Sternweis, et al., 1981, incorporated herein by reference. Gi was purified as the αβγ trimer from rabbit liver as reported by Bokoch, et al., 1984, incorporated herein by reference. The Gi used in this study could be recognized on a Western blot by anti-Gi -1 and anti-Gi -3 antibodies but not by anti-Gi -2 antibody, as documented by Mumby, et al., 1983, incorporated herein by reference. Purified recombinant αi,1 was synthesized in E. coli prepared to the specifications of Linder, incorporated herein by reference. During purification, G protein α subunits were assayed by [^35 S] GTPγ S binding according to the method of Higashijima, 1987, incorporated herein by reference). By subunits were assayed according to their ability to deactivate Gs, as detailed by Northup, 1983, incorporated herein by reference.
G proteins were reconstituted into phospholipid vesicles composed of dioleoyl-PC/bovine brain PS/1-palmitoyl,2-oleoyl-PE (3:4:3) as reported previously by Higashijima et al., 1988, incorporated herein by reference.
To measure the MP-catalyzed dissociation of [α-^32 P]GDP or [^35 S]-GTPγS, labeled nucleotide was first bound to G protein (approximately […] in 50 μl) by incubation of the Lubrol-solubilized G protein with a molar excess of nucleotide in assay buffer that contained 10 mM MgSO4 and 0.1% Lubrol. Incubation was for 20 min at 20° C. (for Go) or for 30 min at 30° C. (for Gi), In the case of [α-^32 P]GDP, EDTA was then added to 12 mM. […] Bound nucleotide was determined by binding to nitrocellulose filters as described (Ferguson, 1986), and incorporated herein by reference. […] Data were analyzed using a nonlinear least squares fitting program.

Go [4] = target: T1, Go (Bos taurus, UniProt P08239); experiment: steady state GTPase activity of Go in phospholipid vesicles; assay type: biochemical, bovine
T1 construct: proteins were extracted from bovine cerebral cortical membranes; from tissue; host or cells: bovine brain (cerebral cortical membranes)

Go [5] = target: T1, Go; experiment: rate of hydrolysis of protein-bound [γ-32P]GTP; assay type: biochemical, bovine
Description: The rate of hydrolysis of protein-bound [γ^32 P]GTP was measured essentially as described previously (Higashijima, 1987) at 20° C. in assay medium that contained 2 ppm Lubrol 12A9. Go (10 nM) was incubated in assay medium for 16 min with 100 nM [γ-^32 P]GTP to allow nucleotide to bind. Hydrolysis was initiated by the addition of 1.3 mM MgSO4. Excess unlabeled GTP was also added such that only a single turnover was measured. The production of [^32 P]Pi was measured as described by Higashijima, 1987.

Gs = Gs (Homo sapiens, UniProt P63092); experiment: steady state GTPase activity of Gs; assay type: biochemical; conditions: Table IV; for EC50: read-out: Gs af. (apparent affinity, estimated by EC50 of GTPase activity)
Description: Methods for the assay of steady state GTP hydrolysis and GTPγS binding have been described previously by Higashijima, 1987, and Ferguson, 1986, and incorporated herein by reference. Unless noted otherwise, assays of steady state GTP hydrolysis and of the binding and dissociation of guanine nucleotides were carried out in the buffer described previously, but without detergent and with 1.1 mM MgSO4 and the nucleotide specified in the text. When necessary, the concentration of free Mg^2+ was adjusted using EDTA buffers as described previously by Higashijima, 1987, and incorporated herein by reference.
The data set forth in the following tables represent data generated by the inventors employing the steady state GTP hydrolysis, expressed as molar turnover numbers, are described herein under the "Assay" section of the Experimental Procedures in Example 1. The data has been classified according to the criteria outlined below and the effects of each peptide and modified variant on Go, Gi, and Gs have been tabulated. Table III below sets forth data generated for various mastoparan analogues designed by the inventors, in comparison with the various naturally-occurring mastoparans (e.g., MP, MP-A and MP-T). Table IV sets forth similar data generated for various receptor-based peptides designed by the inventors based on a consideration of various G-protein linked receptors.
Apparent affinity (af.) and apparent efficacy (ef.) were estimated by EC50 and maximum turnover number of GTPase activity.

[6] = system: muscarinic cholinergic receptor; assay type: binding, porcine
[7] = circular dichroism, fractional helical content; assay type: physicochemical; conditions: 20 μM peptide, pH 7.5, 25° C.
Description: CD spectra of peptides were measured using an Aviv model 60DS spectrometer at 25° C. in 1-mm pathlength cells. Spectra were scanned at 1 nm intervals for 3 s, and three scans were averaged. Peptides were dissolved at 20 μM in 5 mM Tris-Cl, pH 7.5, in the presence or absence of sonicated 1 mM 1-palmitoyl,2-oleoylphosphatidylcholine. Fractional helical content for each peptide was calculated according to the assumption that, for 100% helix and 14 peptide bonds, θ222 =36,000 (1-2.6/14).
Fractional helical contents of some of the peptides

[8] = lytic capacity / toxicity of mastoparan-based peptides

T1 sequence (P08239 2-354 limits assumed): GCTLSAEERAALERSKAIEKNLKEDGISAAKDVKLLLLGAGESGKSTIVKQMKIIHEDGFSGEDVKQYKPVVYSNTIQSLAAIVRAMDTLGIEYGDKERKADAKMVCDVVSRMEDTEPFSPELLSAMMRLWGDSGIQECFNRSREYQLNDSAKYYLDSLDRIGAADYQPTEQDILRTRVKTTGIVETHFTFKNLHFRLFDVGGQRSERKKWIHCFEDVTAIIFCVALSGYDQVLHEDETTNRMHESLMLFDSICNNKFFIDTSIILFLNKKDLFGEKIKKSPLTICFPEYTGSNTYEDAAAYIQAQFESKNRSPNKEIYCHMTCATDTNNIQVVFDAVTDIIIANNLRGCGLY
T1 sequence (P62871 2-340 partner limits assumed): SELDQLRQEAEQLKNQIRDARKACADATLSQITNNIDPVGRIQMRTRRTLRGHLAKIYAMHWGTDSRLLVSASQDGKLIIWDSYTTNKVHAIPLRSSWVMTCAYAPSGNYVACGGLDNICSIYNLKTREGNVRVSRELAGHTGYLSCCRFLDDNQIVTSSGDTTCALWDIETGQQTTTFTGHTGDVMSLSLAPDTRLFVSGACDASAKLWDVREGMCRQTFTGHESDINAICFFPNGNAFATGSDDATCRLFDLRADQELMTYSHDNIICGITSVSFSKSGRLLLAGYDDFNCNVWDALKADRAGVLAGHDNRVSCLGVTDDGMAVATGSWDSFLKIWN
T1 sequence (P63212 2-68 partner limits assumed): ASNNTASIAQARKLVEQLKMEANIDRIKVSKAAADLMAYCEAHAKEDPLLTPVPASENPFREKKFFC
Gs, sequence (P63092 whole entry): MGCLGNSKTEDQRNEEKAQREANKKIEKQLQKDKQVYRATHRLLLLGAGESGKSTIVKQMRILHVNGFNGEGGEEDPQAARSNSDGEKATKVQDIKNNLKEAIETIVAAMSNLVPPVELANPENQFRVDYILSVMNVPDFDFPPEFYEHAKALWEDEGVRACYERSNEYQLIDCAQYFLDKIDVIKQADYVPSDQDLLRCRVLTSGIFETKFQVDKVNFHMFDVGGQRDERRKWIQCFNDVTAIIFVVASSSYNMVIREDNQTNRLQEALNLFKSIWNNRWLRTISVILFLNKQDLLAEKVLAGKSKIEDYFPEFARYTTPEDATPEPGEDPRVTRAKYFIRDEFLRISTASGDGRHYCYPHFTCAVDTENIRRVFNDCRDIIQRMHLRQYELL

CCCCCCCCCCCCC[N+](C)(C)Cc1ccccc1 [BAC (C-12), benzalkonium chloride]
effect on stimulation of Gi GTPase activity by Mas7 and MP (Gi [1]; 3 μg/ml BAC, 10 μM Mas7 (FIG. 3)): antagonized
Turnover number Gi 10 μg/ml (Gi [1]; 10 μg/ml amine, 30 min at 30° C.): 0.08 min⁻¹
Turnover number Gi 100 μg/ml (Gi [1]; 100 μg/ml amine, 30 min at 30° C.): 0.04 min⁻¹
critical micelle concentration ([2]; as restated): 20 µg/mL
critical micelle concentration ([2]; buffer used for GTPase assays, 1,6-diphenyl-1,3,5-hexatriene): approximately 20 μM
BAC concentration range in which the EC50 for Mas7 increased sharply (Gi [3]; Gi, FIG. 4B): 1 to 3 µg/mL
inhibition of Mas7-stimulated GDP exchange on Gi (Gi [3]; intermediate concentrations of Mas7): ≤ 60%
effect on basal GDP exchange rate of Gi (Gi [3]; no Mas7): no detectable inhibition
Turnover number Go 10 μg/ml (Go [4]; 10 μg/ml amine, 15 min at 20° C., PE/PC/PS vesicles): 0.33 min⁻¹
Turnover number Go 100 μg/ml (Go [4]; 100 μg/ml amine, 15 min at 20° C.): 0.8 min⁻¹
maximal stimulation of Go (Go [4]; at about 30 μg/ml (~0.1 mM) BAC, FIG. 5): 20 fold

CC[C@H](C)[C@H](N)C(=O)N[C@@H](CC(N)=O)C(=O)N[C@@H](CC(C)C)C(=O)N[C@@H](CCCCN)C(=O)N[C@@H](C)C(=O)N[C@@H](CC(C)C)C(=O)N[C@@H](C)C(=O)N[C@@H](C)C(=O)N[C@@H](CC(C)C)C(=O)N[C@@H](C)C(=O)N[C@@H](CCCCN)C(=O)N[C@@H](CCCCN)C(=O)N[C@H](C(=O)N[C@@H](CC(C)C)C(N)=O)[C@@H](C)CC [MP]
effect on rate of hydrolysis of bound GTP (Go [5]): did not alter
GTPase Gi 10 μM (Gi [1]; 10 μM peptide, 30 min at 30° C., PE/PC/PS vesicles): 0.19 min⁻¹
GTPase Gi 100 μM (Gi [1]; 100 μM peptide, 30 min at 30° C., PE/PC/PS vesicles): 0.47 min⁻¹
stimulation of Gi (Gi [1]; GTPase assay, typical): about 15 fold
G1 ef. (apparent efficacy, maximum turnover number of GTPase activity) (Gi [1]; Table IV): E (Excellent (E): 30-10 fold)
EC50 (Gi [1]; Table IV, read-out: G1 af. (apparent affinity, estimated by EC50 of GTPase activity)): 10 to 30 µM
Gs ef. (apparent efficacy, maximum turnover number of GTPase activity) (Gs): F (Fair (F): 2-5 fold)
EC50 (Gs): 3 to 10 µM
effect on affinity of the receptor for the antagonist [3H]QNB [6]: did not alter
effect on the receptor's affinity for acetylcholine ([6]; 30 μM peptide, […]): decreased the receptor's affinity for acetylcholine
stimulation of Gi (Gi [3]; GDP exchange assay, typical): about 15 fold
EC50 (Go [4]): 3 to 10 µM
GTPase Go 10 μM (Go [4]; 10 μM peptide, 15 min at 20° C., PE/PC/PS vesicles): 0.59 min⁻¹
GTPase Go 100 μM (Go [4]; 100 μM peptide, 15 min at 20° C., PE/PC/PS vesicles): 0.95 min⁻¹
Goo ef. (apparent efficacy, maximum turnover number of GTPase activity) (Go [4]; Table IV): E (Excellent (E): 30-10 fold)
% α Helix - PC ([7]; absence of 1 mM phospholipid): 19%
% α Helix + PC ([7]; presence of 1 mM phospholipid): 61%

INLKALAALKKALL-NH2 [ER25]
toxicity (in words) [8]: least toxic
EC50 (Gs): 10 to 30 µM
EC50 (Go [4]): 10 to 30 µM
